Data from patent US6313180A, “Steroid compounds having contraceptive and anti-osteoporosis activity” (priority 1997, dated 2001).
Read-outs that look alike come from different tables or passages of the source.

Assays:
[1] = tested on: human progesterone (P) receptor; experiment: Relative progesterone receptor binding affinity, cytoplasmic receptors of MCF-7 cells; settings: relative to (16α)-16-ethyl-21-hydroxy-19-norpregn-4-ene-3,20-dione, 16 h, 4° C
[2] = Allen Doisy test for estrogenic activity in vivo; settings: read-out: AllenDoisy ED50
[3] = McPhail test for progestagenic activity in vivo; settings: read-out: McPhail ED50
ovariectomised rats = experiment: Prevention of ovariectomy-induced bone loss in rats (anti-osteoporosis test, pQCT trabecular bone mineral density); type: in vivo, rat (female Wistar); settings: Rattus norvegicus, 672 h, read-out: Osteoporosis ED50
Source text: Ovariectomy induces in rats bone loss, which is due to oestrogen deficiency. Administration of oestrogenic compounds prevents this effect. The test is used to evaluate a compound for anti-osteoporotic activity in ovariectomised rats. The effect on bone mass can be evaluated by peripheral Quantitave Computed Tomography (pQCT) measurement of trabecular bone mineral density.
Mature virgin female Wistar rats preferentially, 225-250 g. Strain: Hsd/Cpd:Wu, SPF-bred by Harlan, CPB, Zeist, The Netherlands.
On day 1 of the experiment the rats are weighed and distributed over the cages in order of body weight. The rat with the lowest body weight in the first cage and the heaviest rat in the last cage. Treatments are randomized over the rats per block. A block (group of 3+n treatments) consists of 1 Intact placebo rat, 1 OVX placebo rat, 1 OVX reference rat and 1 rat of each n treatments.
Sham-operation and ovariectomy are performed under ether anaesthesia. After recovery from the anaesthesia, within 24 h, vehicle, reference compound or test compound is administered once or twice daily for 4 weeks.
Trabecular bone mineral density (mg/cm^3) of the metaphyseal part of the femur was measured with a pQCT (peripheral Quantitative Computed Tomography machine; XCT 960A, Stratec, Birkenfeld, Germany) directly after autopsy on fresh tissue. Two 360° scans, which have, due to the X-ray beam, a standard thickness of 1 mm were taken. The scans have a resolution of 0.148×0.148 mm. One scan was taken at 5.5 mm from the distal end of the femur, where trabecular bone mineral density of the metaphyseal part was measured. The other scan was taken in the diaphysis at 13.5 mm from the distal end, which contains no trabecular bone. In the latter scan cortical bone mineral density and the geometrical parameters, such as cortical thickness, total bone area, outer and inner diameter, were determined. Intra- and inter-assay variation for the measurement of trabecular bone mineral density in the distal femur were about 2-3%. The XCT-960A was calibrated with a standard of hydroxyapatite embedded in acrylic plastic.
Ovariectomy causes a statistically significant decrease in trabecular bone mineral density (P≤0.05, 2 way ANOVA).
The active dose (ED50) is the dose where a mean proportional difference in trabecular bone mineral density between 40 and 60% is reached as compared to the sham and ovariectomised group.
Several of the compounds according to the Examples I-VI, as well as other compounds according to the invention synthesized in analogous manner, were subjected to the tests described in the Examples VII and VIII. The results are described in the Table, in which the type of A-ring and the substitution at carbon atoms nos. 7, 11, and 17 is indicated. In the columns captioned E and P, the relative binding affinities for the estrogen and progesterone receptors are given; the ED50 results of the AllenDoisy and the McPhail tests have been indicated in μg/kg. In the column captioned "Osteoporosis", the ED50 results of the anti-osteoporosis test are given (dose in μg/kg, day, as described above).

[4] = oral administration, estrogenic activity
[5] = oral administration, progestagenic activity
[6] = oral administration, ovariectomised rats, once or twice daily for 4 weeks, 40-60% proportional difference in trabecular bone mineral density

SMILES | Relative binding affinity to the human progesterone (P) receptor [1] [%] | ED50 ([2]; po) [mg/kg] | ED50 ([3]; po) [mg/kg] | ED50 (ovariectomised rats; po) [mg/kg] | ED50 [2, 4] [mg/kg] | ED50 [3, 5] [mg/kg] | ED50 (ovariectomised rats; [6]) [mg/kg]
C[C@H]1C[C@@H]2C[C@H]3[C@@H]4CCC5=CC(=O)CC[C@@H]5[C@H]4CC[C@]3(C)[C@]2(O)C1 [Code 38541] | 58 | > 0.5 | 0.125 | > 1 | – | – | –
CC[C@H]1C[C@@H]2C[C@H]3[C@@H]4CCC5=CC(=O)CC[C@@H]5[C@H]4[C@@H](CC)C[C@]3(C)[C@]2(O)C1 [Code 38610] | 0.3 | – | – | – | 0.032 | > 0.125 | 0.125
CCCC[C@@H]1C[C@@H]2C[C@H]3[C@@H]4CCC5=CC(=O)CC[C@@H]5[C@H]4[C@@H](C)C[C@]3(C)[C@]2(O)C1 [Code 38276, (4'R,11-beta,16-beta-17-beta)-4'-butyl-4',5',16,17-tetrahydro-17-hydroxy-11-methyl-3'H-cyclopenta[16,17]estra-4,16-dien-3-one] | 115 | – | – | – | > 0.5 | 0.125 | > 1
CCC[C@@H]1C[C@@H]2C[C@H]3[C@@H]4CCC5=C(CCC(=O)C5)[C@H]4[C@@H](CC)C[C@]3(C)[C@]2(O)C1 [Code 38151] | 8 | – | – | – | 0.125 | > 1 | –
CC[C@H]1C[C@@]2(C)[C@@H](C[C@H]3CCCC[C@]32O)[C@@H]2CCC3=CC(=O)CC[C@@H]3[C@@H]12 [Code 37943] | 96 | 0.192 | 1 | 0.4 | – | – | –
C[C@]12CC[C@@H]3C4=C(CC[C@H]3[C@@H]1C[C@H]1CCCC[C@]12O)CC(=O)CC4 [Code 37516] | 13 | – | – | – | > 4 | 1 | > 2
C[C@H]1C[C@@H]2C[C@H]3[C@H]4[C@H](CC[C@]3(C)[C@]2(O)C1)[C@H]1CCC(=O)C=C1C[C@H]4C [Code 38049] | 250 | > 2 | 1 | > 1 | – | – | –
CCC[C@H]1C[C@@H]2C[C@H]3[C@@H]4CCC5=CC(=O)CC[C@@H]5[C@H]4[C@@H](CC)C[C@]3(C)[C@]2(O)C1 [Code 38577] | 139 | – | – | – | 0.192 | > 0.5 | 0.25
C[C@]12CC[C@H]3[C@@H](CCC4=CC(=O)CC[C@@H]43)[C@@H]1C[C@H]1CCCC[C@]12O [Code 37518] | 115 | > 4 | 0.125 | > 2 | – | – | –
C[C@H]1C[C@@]2(C)[C@@H](C[C@H]3C[C@H](CN=[N+]=[N-])C[C@]32O)[C@@H]2CCC3=CC(=O)CC[C@@H]3[C@H]21 [Code 38322] | 44 | – | – | – | > 0.5 | 0.063 | > 1
CCC[C@@H]1CC2=CC(=O)CC[C@@H]2[C@H]2CC[C@@]3(C)[C@@H](C[C@H]4C[C@@H](C)C[C@]43O)[C@H]12 [Code 38550] | 36 | – | – | – | 0.125 | > 0.125 | 0.125
CCC[C@H]1C[C@@H]2C[C@H]3[C@@H]4CCC5=CC(=O)CC[C@@H]5[C@H]4CC[C@]3(C)[C@]2(O)C1 [Code 37977] | 151 | > 4 | 0.5 | > 1 | – | – | –
